Measurements reported in patent US6268496A, “Certain imidazoquinoxalines: a new class of GABA brain receptor ligands” (Neurogen Corporation, priority 1999, dated 2001).

Legend:
[1] = system: benzodiazepine binding site; settings: cited from earlier work
GABAa receptor = GABAa receptor activity: displacement of 3H-RO15-1788 (3H-Flumazenil) binding in rat cortical tissue homogenate; settings: 0.5 nM 3H-RO15-1788 [3H-Flumazenil], 30 min at 4° C., pH 7.4
Experimental: Rat cortical tissue is dissected and homogenized in 25 volumes (w/v) of 0.05 M Tris HCl buffer (pH 7.4 at 4° C.). The tissue homogenate is centrifuged in the cold (4°) at 20,000×g for 20'. The supernatant is decanted and the pellet is rehomogenized in the same volume of buffer and again centrifuged at 20,000×g. The supernatant is decanted and the pellet is frozen at -20° C. overnight. The pellet is then thawed and rehomogenized in 25 volume (original wt/vol) of buffer and the procedure is carried out twice. The pellet is finally resuspended in 50 volumes (w/vol of 0.05 M Tris HCl buffer (pH 7.4 at […]).
Incubations are carried for 30 min at 4° C. then are rapidly filtered through GFB filters to separate free and bound ligand. Filters are washed twice with fresh 0.05 M Tris HCl buffer (pH 7.4 at 4° C.) and counted in a liquid scintillation counter. […] diazepam is added to some tubes to determine nonspecific binding. Data are collected in triplicate determinations, averaged and % inhibition of total specific binding is calculated. Total Specific Binding=Total-Nonspecific. In some cases, the amounts of unlabeled drugs is varied and total displacement curves of binding are carried out. Data are converted to a form for the calculation of IC50 and Hill Coefficient (nH).

IC50 (GABAa receptor) | Compound | further results
– | CN1CCc2cc3c(cc2[C@H]1[C@@H]1OC(=O)c2c1ccc1c2OCO1)OCO3 [(+) bicuculline] | block of the enhancement of benzodiazepine binding by GABA agonists [1]: blocked
– | CN1CCc2cc3c(cc2[C@@H]1[C@H]1OC(=O)c2c1ccc1c2OCO1)OCO3 [(-) bicuculline] | block of the enhancement of benzodiazepine binding by GABA agonists [1]: much less active
9.5 nM | O=c1c2c[nH]c3ccccc3n-2c(=O)n1-c1ccccc1 [Compound 1, 2-Phenyl-imidazo[1,5-a]quinoxaline-1,3(2H,5H)-dione] | –
9.5 nM | COc1ccc(-n2c(=O)c3c[nH]c4ccccc4n-3c2=O)cc1 [Compound 4, 2-(4-Methoxyphenyl)-imidazo[1,5,a]quinoxaline-1,3(2H,5H)-dione] | –
16 nM | Cc1ccc(-n2c(=O)c3c[nH]c4ccccc4n-3c2=O)cc1 [Compound 5, 2-(4-Methylphenyl)-imidazo[1,5,a]quinoxaline-1,3(2H,5H)-dione] | –
– | NCCCC(=O)O [GABA, γ-Aminobutyric acid] | effect on binding of benzodiazepines ([1]; low affinity (1 mM) GABA binding site): enhance the binding of benzodiazepines

Compound | IC50 (GABAa receptor) | further results
CCOc1ccc(-n2c(=O)c3c[nH]c4ccccc4n-3c2=O)cc1 [Compound 3, 2-(4-ethoxyphenyl)-imidazo[1,5,a]quinoxaline-1,3(2H,5H)-dione] | 15 nM | –
COc1ccc(-n2c(=O)c3c[nH]c4ccc(Br)cc4n-3c2=O)cc1 [Compound 33, 8-Bromo-2-(4-methoxyphenyl)-imidazo[1,5,a]quinoxaline-1,3(2H,5H)-dione] | 2.4 nM | –
